Source: US20240368173A1, “TRICYCLIC GPR65 MODULATORS” (PATHIOS THERAPEUTICS LIMITED, priority 2021, published 2024)
Like-named read-outs stand apart in the source and are kept apart here.

Target: human recombinant GPR65 (Homo sapiens, UniProt Q8IYL9)
Assay: Human GPR65 cAMP HTRF antagonist assay
Format: cell-based
Outline: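 Antagonism measured as suppression of the cAMP rise when pH is dropped to 7.2 (control wells pH 7.9) in 1321N1 cells stably carrying human GPR65. Cells in KRH with 1 mM IBMX and 200 μM EDTA saw compound 30 min, then acid stimulation 30 min; HTRF cAMP detection, normalised, 4-parameter logistic IC50.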

[1] = 1321N1-hrGPR65 cells, cAMP HTRF, assay pH 7.2, read-out: hGPR65 IC50 (Activity of selected compounds according to the invention)

Chain of human recombinant GPR65 (Q8IYL9 whole entry): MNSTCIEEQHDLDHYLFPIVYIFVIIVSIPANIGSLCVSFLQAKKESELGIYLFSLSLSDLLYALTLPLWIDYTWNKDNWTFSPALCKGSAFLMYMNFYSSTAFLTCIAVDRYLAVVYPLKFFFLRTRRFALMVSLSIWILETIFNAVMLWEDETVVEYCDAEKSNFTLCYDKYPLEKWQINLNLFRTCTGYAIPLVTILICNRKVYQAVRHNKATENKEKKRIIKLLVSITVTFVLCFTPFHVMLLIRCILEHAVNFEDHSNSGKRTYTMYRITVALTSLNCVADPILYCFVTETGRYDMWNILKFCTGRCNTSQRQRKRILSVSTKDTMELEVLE

With `O=C(Nc1cc(-c2cncc(F)c2)c(C(F)(F)F)cc1F)N1[C@H]2CC[C@@H]1c1ccnc(F)c1C2` [Compound 256, (5R,8S)-1-fluoro-N-(2-fluoro-5-(5-fluoropyridin-3-yl)-4-(trifluoromethyl)phenyl)-6,7,8,9-tetrahydro-5H-5,8-epiminocyclohepta[c]pyridine-10-carboxamide] the IC50 was less than 500 nM.
`CC(C)Oc1ccc(NC(=O)N2C3CCC2c2n[nH]c(=O)cc2C3)cc1Cl` (racemic) [Compound 13, (±)-N-(3-Chloro-4-isopropoxyphenyl)-3-oxo-3,5,6,7,8,9-hexahydro-2H-6,9-epiminocyclohepta[c]pyridazine-10-carboxamide] was tested, and the IC50 [1] was 500 to 5000 nM.
With `O=C(Nc1cc(C(F)(F)F)on1)N1C2CCC1c1n[nH]c(=O)cc1C2` (racemic) [Compound 44, (±)-3-Oxo-N-(5-(trifluoromethyl)isoxazole-3-yl)-3,5,6,7,8,9-hexahydro-2H-6,9-epiminocyclohepta[c]pyridazine-10-carboxamide] the IC50 was less than 500 nM.
For `CO[C@H]1CC[C@@H](Oc2ccc(-c3cc(F)c(NC(=O)N4[C@H]5CC[C@@H]4c4n[nH]c(=O)cc4C5)cc3Cl)cn2)CC1` [Compound 343, (6S,9R)-N-(5-Chloro-2-fluoro-4-(6-(((1s,4s)-4-methoxycyclohexyl)oxy)pyridin-3-yl)phenyl)-3-oxo-3,5,6,7,8,9-hexahydro-2H-6,9-epiminocyclohepta[c]pyridazine-10-carboxamide], the IC50 was less than 500 nM.
In the case of `O=C(Nc1ccccc1)c1cc(F)c(NC(=O)N2[C@H]3CC[C@@H]2c2n[nH]c(=O)cc2C3)cc1Cl` [Compound 231, (6S,9R)—N-(5-Chloro-2-fluoro-4-(phenylcarbamoyl)phenyl)-3-oxo-3,5,6,7,8,9-hexahydro-2H-6,9-epiminocyclohepta[c]pyridazine-10-carboxamide], the IC50 is reported as 500 to 5000 nM.
`O=C(Nc1cc(Cl)c(-c2ccc3nonc3c2F)cc1F)N1[C@H]2CC[C@@H]1c1n[nH]c(=O)cc1C2` [Compound 327, (6S,9R)-N-(5-Chloro-2-fluoro-4-(4-fluorobenzo[c][1,2,5]oxadiazol-5-yl)phenyl)-3-oxo-3,5,6,7,8,9-hexahydro-2H-6,9-epiminocyclohepta[c]pyridazine-10-carboxamide] was tested, and the IC50 was less than 500 nM.
In the case of `CO[C@H]1C[C@@H](Oc2ccc(NC(=O)N3[C@H]4CC[C@@H]3c3ccnc(F)c3C4)cc2Cl)C1` [Compound 72, (5R,8S)-N-(3-Chloro-4-((1s,3S)-3-methoxycyclobutoxy)phenyl)-1-fluoro-6,7,8,9-tetrahydro-5H-5,8-epiminocyclohepta[c]pyridine-10-carboxamide], the IC50 is reported as 500 to 5000 nM.
`O=C(Nc1cc(Cl)c(Cl)cc1F)N1[C@H]2CC[C@@H]1c1c(F)ncc(Cl)c1C2` [Compound 99, (6S,9R)-4-Chloro-N-(4,5-dichloro-2-fluorophenyl)-1-fluoro-6,7,8,9-tetrahydro-5H-6,9-epiminocyclohepta[c]pyridine-10-carboxamide] showed an IC50 [1] of 500 to 5000 nM.
With `CNc1cnc(F)c2c1[C@H]1CC[C@@H](C2)N1C(=O)Nc1cc(Cl)c(Cl)cc1F` [Compound 159, (5R,8S)—N-(4,5-dichloro-2-fluorophenyl)-1-fluoro-4-(methylamino)-6,7,8,9-tetrahydro-5H-5,8-epiminocyclohepta[c]pyridine-10-carboxamide] the IC50 was less than 500 nM.
For `O=C(Nc1cc(Cl)c(-c2cncc(C(F)F)c2)cc1F)N1[C@H]2CC[C@@H]1c1n[nH]c(=O)cc1C2` [Compound 333, (6S,9R)-N-(5-Chloro-4-(5-(difluoromethyl)pyridin-3-yl)-2-fluorophenyl)-3-oxo-3,5,6,7,8,9-hexahydro-2H-6,9-epiminocyclohepta[c]pyridazine-10-carboxamide], the IC50 was less than 500 nM.
`COc1ccc(-c2cc(F)c(NC(=O)N3[C@H]4CC[C@@H]3c3n[nH]c(=O)cc3C4)cc2Cl)c(F)n1` [Compound 202, (6S,9R)-N-(5-Chloro-2-fluoro-4-(2-fluoro-6-methoxypyridin-3-yl)phenyl)-3-oxo-3,5,6,7,8,9-hexahydro-2H-6,9-epiminocyclohepta[c]pyridazine-10-carboxamide] gave an IC50 of less than 500 nM.
With `COc1ncc(-c2cc(F)c(NC(=O)N3[C@H]4CC[C@@H]3c3c[nH]c(=O)cc3C4)cc2Cl)cc1F` [Compound 217, (6S,9R)-N-(5-Chloro-2-fluoro-4-(5-fluoro-6-methoxypyridin-3-yl)phenyl)-3-oxo-3,5,6,7,8,9-hexahydro-2H-6,9-epiminocyclohepta[c]pyridine-10-carboxamide] the IC50 was less than 500 nM.
Work on `COc1ccc(-c2cc(F)c(NC(=O)N3[C@H]4CC[C@@H]3c3ccnc(F)c3C4)cc2F)cn1` [Compound 245, (5R,8S)-N-(2,5-Difluoro-4-(6-methoxypyridin-3-yl)phenyl)-1-fluoro-6,7,8,9-tetrahydro-5H-5,8-epiminocyclohepta[c]pyridine-10-carboxamide] yielded an IC50 of less than 500 nM.
`O=C(Nc1cc(Cl)c(C(F)(F)F)cc1F)N1[C@@H]2CC[C@H]1c1ccnc(F)c1[C@H]2F` [Compound 295, (5S,8R,9R)-N-(5-Chloro-2-fluoro-4-(trifluoromethyl)phenyl)-1,9-difluoro-6,7,8,9-tetrahydro-5H-5,8-epiminocyclohepta[c]pyridine-10-carboxamide] showed an IC50 of less than 500 nM.
With `O=C(Nc1cc(Cl)c(Cl)cc1F)N1[C@H]2CC[C@@H]1c1c(O)cnc(F)c1C2` [Compound 104, (5R,8S)—N-(4,5-Dichloro-2-fluorophenyl)-1-fluoro-4-hydroxy-6,7,8,9-tetrahydro-5H-5,8-epiminocyclohepta[c]pyridine-10-carboxamide] the IC50 was less than 500 nM.
`O=C(Nc1cc(Cl)c(Oc2ccc3nonc3c2)cc1F)N1[C@H]2CC[C@@H]1c1n[nH]c(=O)cc1C2` [Compound 294, (6S,9R)-N-(4-(Benzo[c][1,2,5]oxadiazol-5-yloxy)-5-chloro-2-fluorophenyl)-3-oxo-3,5,6,7,8,9-hexahydro-2H-6,9-epiminocyclohepta[c]pyridazine-10-carboxamide] gave an IC50 of less than 500 nM.
In the case of `O=C(Nc1cc(Br)c(Cl)cc1F)N1C2CCC1c1n[nH]c(=O)cc1C2` (racemic) [Compound 7, (±)-N-(5-Bromo-4-chloro-2-fluorophenyl)-3-oxo-3,5,6,7,8,9-hexahydro-2H-6,9-epiminocyclohepta[c]pyridazine-10-carboxamide], the IC50 is reported as less than 500 nM.
With `O=C(Nc1cc(Cl)c(-c2cnc3nonc3c2)cc1F)N1[C@H]2CC[C@@H]1c1n[nH]c(=O)cc1C2` [Compound 165, (6S,9R)-N-(4-([1,2,5]Oxadiazolo[3,4-b]pyridine-6-yl)-5-chloro-2-fluorophenyl)-3-oxo-3,5,6,7,8,9-hexahydro-2H-6,9-epiminocyclohepta[c]pyridazine-10-carboxamide] the IC50 was less than 500 nM.
Compound `CS(=O)(=O)c1ccc(-c2cc(F)c(NC(=O)N3[C@H]4CC[C@@H]3c3n[nH]c(=O)cc3C4)cc2Cl)cc1` [Compound 131, (6S,9R)-N-(2-Chloro-5-fluoro-4′-(methylsulfonyl)-[1,1′-biphenyl]-4-yl)-3-oxo-3,5,6,7,8,9-hexahydro-2H-6,9-epiminocyclohepta[c]pyridazine-10-carboxamide] has an IC50 of less than 500 nM.
`O=C(Nc1cc(Cl)c(Cl)cc1F)N1[C@H]2CC[C@@H]1c1c(Cl)cnc(F)c1C2` [Compound 100, (5R,8S)-4-Chloro-N-(4,5-dichloro-2-fluorophenyl)-1-fluoro-6,7,8,9-tetrahydro-5H-5,8-epiminocyclohepta[c]pyridine-10-carboxamide] was tested, and the IC50 was less than 500 nM.
